The results in this text go back to US5120729A, “Beta-lactams as antihypercholesterolemics” (Merck & Co., Inc., priority 1990, dated 1992).

The target in the first assay is T1, HMG-CoA synthase (Rattus norvegicus, UniProt P17425).
T1 construct: The livers from male Charles River CD rats (225-350 g) were homogenized; from tissue; host or cells: rat liver (male Charles River CD rats), 100,000×g supernatant, ammonium sulfate precipitate, DEAE-52 fraction
T1 sequence (P17425 1-520): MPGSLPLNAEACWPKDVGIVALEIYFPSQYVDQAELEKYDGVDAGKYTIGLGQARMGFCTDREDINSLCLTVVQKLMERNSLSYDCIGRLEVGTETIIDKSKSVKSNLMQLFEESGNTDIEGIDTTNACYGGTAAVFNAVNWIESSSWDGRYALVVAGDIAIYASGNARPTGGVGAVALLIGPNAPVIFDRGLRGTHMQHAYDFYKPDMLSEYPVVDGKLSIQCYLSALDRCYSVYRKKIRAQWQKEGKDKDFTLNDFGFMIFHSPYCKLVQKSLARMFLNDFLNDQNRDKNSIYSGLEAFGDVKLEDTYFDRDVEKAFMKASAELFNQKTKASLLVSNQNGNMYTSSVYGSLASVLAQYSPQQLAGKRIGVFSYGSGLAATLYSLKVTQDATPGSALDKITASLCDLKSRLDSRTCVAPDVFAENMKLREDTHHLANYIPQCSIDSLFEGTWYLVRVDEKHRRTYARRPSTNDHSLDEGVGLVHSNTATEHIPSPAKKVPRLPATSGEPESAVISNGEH
As to the kind of experiment: HMG-CoA synthase inhibition assay. The class given is biochemical. The note with it: Table I; n is 1, R3 is H. Here is the method: The intrinsic HMG-CoA synthase inhibition activity of the compounds of this invention is measured by the standard in vitro protocol described below:
The livers from male Charles River CD rats (225-350 g) were homogenized in 0.25M sucrose which was adjusted with phenylmethylsulfonylfluoride (PMSF) and N-p-tosyl-l-lysine chloromethyl ketone (TLCK) so that the final concentration of each was […], respectively. The homogenate was centrifuged at 15,000×g for 20 minutes, the supernatant filtered through a fine nylon screen to remove most of the fat layer and recentrifuged at 100,000×g for 1 hour. This supernatant was removed and 1M potassium phosphate, dithiothreitol (DTT) and ethylene glycolbis(β-aminoethyl ether)-N,N,N',N'-tetraacetic acid (EGTA) added to give a final concentration of 0.1M (pH 7.2), 0.5 mM and 0.1 mM, respectively. Solid ammonium sulfate was added to 50% saturation to the protein solution, it was centrifuged at 15,000×g and the supernatant discarded. This precipitated protein could be stored at -70° C. for at least one month with very little loss of activity. The ammonium sulfate precipitate was dissolved in an minimal amount of 0.06M potassium phosphate buffer (pH 7.2) containing 0.5 mM dithiothreitol and 0.1 mM EGTA (referred to as 0.06M phosphate buffer) and dialyzed overnight against 2 liters of the same buffer to remove the ammonium sulfate and to inactivate HMG-CoA lyase [Clinkenbeard, et al., J. Biol. Chem. 250, 3108-3116(1975)].
The dialyzed extract was added to a column of DEAE-52 (Whatman) which had been equilibrated with 0.06M phosphate buffer (10 mg of protein to 1 ml bed volume of the resin). The DEAE-cellulose was eluted with 0.06M phosphate buffer until the optical density at 280 nm was essentially zero. This fraction contained the β-ketoacetyl-CoA thiolase activity. The HMG-CoA synthase was eluted from the column with 0.1M phosphate buffer (pH 7.2) containing 0.5 mM DTT and 0.1 mM EGTA, and was virtually free of all thiolase activity. The protein was precipitated by the addition of ammonium sulfate to give 50% saturation. This solution was stirred for 10 minutes at 4° C. and the precipitate collected by centrifugation at 15,000 rpm for 10 minutes. The supernatant was discarded and the precipitate dissolved in a minimum of 0.06M phosphate buffer, pH 7.2 (about 10 ml) and the enzyme stored at -80° C.
HMG-CoA Synthase Inhibition Assay
Enzyme protein (ca. 24 mg) was added to a solution containing […] (pH 8.0), 11.7 μM MgCl2, 1.17 μM ethylenediaminetetraacetic acid (EDTA), 0.58 μM dithiothreitol, and the indicated concentrations of the test compound (added as a 2 mg/ml solution in dimethylsulfoxide). The incubation took place in a volume of 0.085 ml at 30° in a shaking water bath. After 5 minutes, […] of a solution containing acetoacetyl-CoA and 0.1 μCi of 1-[^14 C]-acetyl-CoA was added to give a final concentrations of 0.1 and 0.4 μM, respectively. The incubation was continued for 10 more minutes and the reaction stopped by the addition of […] of the assay mixture to 0.2 ml of 6N HCl in a glass scintillation vial. The vial was heated for 1 hour at 120° after which time 0.2 ml more of 6N HCl was again added to each vial and the heating continued for another hour. Following this, 1.0 ml of 0.9% saline was added to each vial and finally 10 ml of scintillation liquid. Radioactivity was determined in a Packard Tri-Carb liquid scintillation counter.
Percent inhibition is calculated by the formula: [formula]
IC50 values were determined by plotting the log of the concentration of the test compound verses the percentage inhibition and fitting a straight line to the resulting data by using the least squares method.
Consider `Cc1ccc(S(=O)(=O)N2C(=O)C[C@H]2CSc2ccccc2)cc1` [Table I i), (4S)-4-Thiophenoxymethyl-N-toluenesulfonyl-2-azetidinone], for which half-maximal inhibition (IC50) was put at 70 nM.

For `Cc1ccc(S(=O)(=O)N2C(=O)C[C@H]2C[S+]([O-])c2ccccc2)cc1` (stereo partly drawn) [Table I ii)], half-maximal inhibition (IC50) was put at 120 nM.

As for `Cc1ccc(S(=O)(=O)N2C(=O)C[C@H]2CS(=O)(=O)c2ccccc2)cc1` [Table I iii), (4S)-4-Phenylsulfonymethyl-N-toluenesulfonyl-2-azetidinone], inhibition was half-maximal at 120 nM (IC50).

In the case of `COC(=O)c1ccc(OC[C@@H]2CC(=O)N2S(=O)(=O)c2ccc(C)cc2)cc1` [Table I iv), (4S)-4-p-Methoxycarbonylphenoxymethyl-N-toluenesulfonyl-2-azetidinone], the IC50 (as a rule, the concentration at which inhibition is half-maximal) was 46 nM.

Turning to `Cc1ccc(S(=O)(=O)N2C(=O)C[C@H]2CI)cc1` [Table I v)], the IC50 was 820 nM.

The same assay, now with this note: Table II; n is 1, R3 is C1-5 alkyl.
For the compound `CC[C@@H]1C(=O)N(S(=O)(=O)c2ccc(C)cc2)[C@@H]1CSc1ccccc1` (relative stereo) [Table II i)], the IC50 worked out at 120 nM. In other words, the sub-micromolar range.

Compound `CC[C@@H]1C(=O)N(S(=O)(=O)c2ccc(C)cc2)[C@@H]1COC` (relative stereo) [Table II ii), (±)-cis-3-Ethyl-4-methoxymethyl-N-toluenesulfonyl-2-azetidinone] registered an IC50 of 67 nM. This IC50 lies about 1.8-fold lower than the previous one.

Turning to `CC[C@@H]1C(=O)N(S(=O)(=O)c2ccc(C)cc2)[C@@H]1CF` (relative stereo) [Table II iii), (±)-cis-3-Ethyl-4-fluoromethyl-N-toluenesulfonyl-2-azetidinone], inhibition was half-maximal at 60 nM (IC50).

The assay is the same for the next values; noted with them: Table III; n is 2, R3 is H.
The compound `COC(=O)c1ccc(OCCC2CC(=O)N2S(=O)(=O)c2ccc(C)cc2)cc1` (racemic) [Table III i), (±)-4-(2-p-Methoxycarbonylphenoxy)ethyl-N-toluenesulfonyl-2-azetidinone] showed an IC50 of 66 nM. This lies in the double-digit nanomolar range.

Consider `Cc1ccc(S(=O)(=O)N2C(=O)CC2CCOCc2ccccc2)cc1` (racemic) [Table III ii), (±)-4-(2-Benzyloxy)ethyl-N-toluenesulfonyl-2-azetidinone], for which half-maximal inhibition (IC50) was put at 90 nM. This IC50 and that of the compound before are within 1.5-fold of each other.

For the compound `Cc1ccc(S(=O)(=O)N2C(=O)CC2CCOC(c2ccccc2)c2ccccc2)cc1` (racemic) [Table III iii), (±)-4-(2-Diphenylmethoxy)ethyl-N-toluenesulfonyl-2-azetidinone], the IC50 came to 61 nM.

Still in this assay, the particulars now being: Table IV; n is 2, R3 is CH3CH2 or CH3OCH2.
The compound `CC[C@@H]1C(=O)N(S(=O)(=O)c2ccc(C)cc2)[C@@H]1CCOc1ccc(C(=O)OC)cc1` (relative stereo) [Table IV i), (±)-cis-3-Ethyl-4-(2-p-methoxycarbonylphenoxy)ethyl-N-toluenesulfonyl-2-azetidinone] registered an IC50 of 65 nM.

`COC[C@H]1C(=O)N(S(=O)(=O)c2ccc(C)cc2)[C@@H]1CCOc1ccc(C(=O)OC)cc1` (relative stereo) [Table IV ii)] showed an IC50 of 1400 nM.

For `CC[C@@H]1C(=O)N(S(=O)(=O)c2ccc(C)cc2)[C@@H]1CCS(=O)(=O)c1ccccc1` (relative stereo) [Table IV iii), (±)-3-Ethyl-4-(2-phenylsulfonyl)ethyl-N-toluenesulfonyl-2-azetidinone], the IC50 is 640 nM. This IC50 is about 2.2-fold lower than that of the compound before.

Still in this assay, the particulars now being: Table V; n is 3, R3 is H.
`COC(=O)c1ccc(OCCCC2CC(=O)N2S(=O)(=O)c2ccc(C)cc2)cc1` (stereo not drawn) [Table V i)]: half-maximal inhibition (IC50) required 190 nM. In other words, the sub-micromolar range.

In the case of `Cc1ccc(S(=O)(=O)N2C(=O)CC2CCCOc2ccccc2)cc1` (stereo not drawn) [Table V ii)], the IC50 is 140 nM.

On to `Cc1ccc(S(=O)(=O)N2C(=O)CC2CCCBr)cc1` (stereo not drawn) [Table V iii)], for which half-maximal inhibition (IC50) was put at 130 nM.

The assay is the same for the next values; noted with them: Table VI; n is 4.
In the case of `COCC1C(=O)N(S(=O)(=O)c2ccc(C)cc2)C1CCCCC(C)CC(C)=CC(C)=CC(=O)OC` [Table VI i), (3R,4R,5'R)-(E,E)-3-Methoxymethyl-4-(10'-methoxycarbonyl-5',7',9'-trimethyl-7',9'-decadienyl)-N-toluensulfonyl-2-azetidinone], the IC50 is 3600 nM.
